Measurements published in patent US10457677B2 (priority 2015, dated 2019).
Read-outs that look alike come from different tables or passages of the source.

Tests used:
[1] = target: purified human recombinant ATM (ataxia telangiectasia mutated), full length (Homo sapiens (Human), UniProt Q13315); assay: ATM kinase assay - determination of ATM inhibition (IC50 ATM), TR-FRET; type: biochemical; settings: 10 μM ATP, substrate p53
Experimental: ATM kinase assay—determination of ATM inhibition (IC50 ATM):
The IC50 value was determined with the aid of a biochemical ATM kinase assay. The assay consists of two steps: the enzymatic reaction and the detection step. Firstly, ATM (ataxia telangiectasia mutated) protein and the test substance are incubated at different concentrations with addition of substrate protein p53 and ATP. ATM mediates the phosphorylation of p53 at several positions, including at amino acid S15. The amount of phosphorylated p53 is determined with the aid of specific antibodies and the TR-FRET technique. The enzymatic ATM assay is carried out as TR-FRET (HTRF™, Cisbio Bioassays) based 384-well assay. In the first step, purified human recombinant ATM (human ATM, full length, GenBank ID NM_000051, expressed in a mammal cell line) is incubated in assay buffer for 15 minutes with the ATM inhibitor in various concentrations and without test substance as negative or neutral control. The assay buffer comprises 25 mM HEPES pH 8.0, 10 mM Mg(CH3COO)2, 1 mM MnCl2, 0,1% BSA and 0,01% Brij® 35, 5 mM dithiothreitol (DTT). […] In the second step, purified human recombinant cmyc-labelled p53 (human p53, full length, GenBank ID BC003596, expressed in Sf21 insect cells) and ATP are added, and the reaction mixture is incubated at 22° C. for 30-35 minutes. The pharmacologically relevant assay volume is 5 μl. […] The enzymatic reaction is stopped by addition of EDTA. […] After incubation, usually for 2 hours (between 1.5 and 15h), for signal development, the plates are analysed in a plate reader (EnVision, PerkinElmer) using TRF mode (and with laser excitation). […] The measurement data were processed by means of Genedata Screener software.

[2] = tested on: phosphorylation of CHK2 (phospho-Thr68) in HCT116 cells; assay: Cellular pCHK2 assay: bleomycin-induced phosphorylation of CHK2 (phospho-Thr68), immunofluorescence high-content analysis; type: cell-based, human; settings: read-out: IC50 (pCHK2)
Source text: For the identification of substances which inhibit the phosphorylation of the protein kinase CHK2 at the amino acid threonine 68, an immunofluorescence-based “high content” analysis assay was used in HCT116 cells.
In vitro cell-based immunofluorescence assay for the identification of inhibitors of bleomycin-induced phosphorylation of CHK2 (phospho-Thr68) in the human colon carcinoma cell line HCT116:
HCT116 cells are sown out in a defined cell density in 384-well plates in culture medium (DMEM high glucose, 2 mM GlutaMax, 1 mM Na pyruvate, 10% FCS) and incubated overnight at 37° C. and 10% of CO2. On the following day, the test substances are added in a defined concentration range (1 nM to 30 μM) in combination with 10 μM bleomycin, where the concentration of the solvent DMSO is kept constant at 0.5%. […] Parallel staining of DNA with propidium iodide enables determination of the cell count. The pCHK2 signal is detected using a high-content imager (Molecular Devices IMX Ultra) and automatic image analysis using the MetaXpress software belonging to the instrument. The number of cell nuclei which have a pCHK2 signal above a defined background is determined.

PI3K p110α/p85α (human) = PI3K p110α/p85α (human) (Homo sapiens (Human), UniProt P42336); assay: PI3K p110α/p85α (human), non-radioactive assay (HTRF); type: biochemical; settings: as printed:
Experimental: PI3K p110α/p85α (Human), Non-radioactive Assay
(§1) PI3K p110α/p85α (human) was incubated in an assay buffer comprising 10 μM phosphati-dylinositol 4,5-bisphosphate and MgATP (concentration as necessary). The reaction was initiated by addition of MgATP solution. After incubation at room temperature for 40 minutes, the reaction was stopped by addition of a solution consisting of EDTA and biotinylated phosphatidylinositol 3,4,5-trisphosphate. Finally, the detection buffer, consisting of a europium-labelled anti-GST monoclonal antibody, a GST-labelled GRP1 PH domain and streptavidin allophycocyanin, was added. The plate was read out via homogeneous time-resolved fluorescence (HTRF) and the corresponding signals were evaluated via the formula HTRF=10000×(Em665nm/Em620nm).

PI3K (p120γ) (human) = PI3K (p120γ) (human) (Homo sapiens (Human), UniProt P48736); assay: PI3K (p120γ) (human), non-radioactive assay (HTRF); type: biochemical; settings: as printed:
Experimental: PI3K (p120γ) (Human), Non-radioactive Assay
as §1, with “(p120γ)” for “p110α/p85α”, “After an” for “After”, “incubation time of 30 min” for “incubation”, “temperature,” for “temperature for 40 minutes,”, “HTRF=10000×(Em665nm/Em620nm). • MgATP=magnesium 5′-O—[hydroxy({[(hydroxyphosphinato)oxy]phosphinato}oxy)phosphoryl]adenosine • MgCl2=magnesium dichloride • EGTA=ethylene glycol bis(aminoethyl ether) N,N,N′,N′-tetraacetic acid • Tween 20=polysorbate 20 Medicament/pharmaceutical Composition” for “HTRF=10000×(Em665nm/Em620nm).”

PI3K p110δ/p85α (human) = PI3K p110δ/p85α (human) (Homo sapiens (Human), UniProt O00329); assay: PI3K p110δ/p85α (human), non-radioactive assay (HTRF); type: biochemical; settings: as printed:
Experimental: PI3K p110δ/p85α (Human), Non-radioactive Assay
as §1, with “p110δ/p85α” for “p110α/p85α”, “After an” for “After”, “incubation time of 30 min” for “incubation”, “temperature,” for “temperature for 40 minutes,”

[3] = HCT116 cells, 10 μM bleomycin, 4 h

Chain of purified human recombinant ATM (ataxia telangiectasia mutated), full length (Q13315 whole entry, change not shown): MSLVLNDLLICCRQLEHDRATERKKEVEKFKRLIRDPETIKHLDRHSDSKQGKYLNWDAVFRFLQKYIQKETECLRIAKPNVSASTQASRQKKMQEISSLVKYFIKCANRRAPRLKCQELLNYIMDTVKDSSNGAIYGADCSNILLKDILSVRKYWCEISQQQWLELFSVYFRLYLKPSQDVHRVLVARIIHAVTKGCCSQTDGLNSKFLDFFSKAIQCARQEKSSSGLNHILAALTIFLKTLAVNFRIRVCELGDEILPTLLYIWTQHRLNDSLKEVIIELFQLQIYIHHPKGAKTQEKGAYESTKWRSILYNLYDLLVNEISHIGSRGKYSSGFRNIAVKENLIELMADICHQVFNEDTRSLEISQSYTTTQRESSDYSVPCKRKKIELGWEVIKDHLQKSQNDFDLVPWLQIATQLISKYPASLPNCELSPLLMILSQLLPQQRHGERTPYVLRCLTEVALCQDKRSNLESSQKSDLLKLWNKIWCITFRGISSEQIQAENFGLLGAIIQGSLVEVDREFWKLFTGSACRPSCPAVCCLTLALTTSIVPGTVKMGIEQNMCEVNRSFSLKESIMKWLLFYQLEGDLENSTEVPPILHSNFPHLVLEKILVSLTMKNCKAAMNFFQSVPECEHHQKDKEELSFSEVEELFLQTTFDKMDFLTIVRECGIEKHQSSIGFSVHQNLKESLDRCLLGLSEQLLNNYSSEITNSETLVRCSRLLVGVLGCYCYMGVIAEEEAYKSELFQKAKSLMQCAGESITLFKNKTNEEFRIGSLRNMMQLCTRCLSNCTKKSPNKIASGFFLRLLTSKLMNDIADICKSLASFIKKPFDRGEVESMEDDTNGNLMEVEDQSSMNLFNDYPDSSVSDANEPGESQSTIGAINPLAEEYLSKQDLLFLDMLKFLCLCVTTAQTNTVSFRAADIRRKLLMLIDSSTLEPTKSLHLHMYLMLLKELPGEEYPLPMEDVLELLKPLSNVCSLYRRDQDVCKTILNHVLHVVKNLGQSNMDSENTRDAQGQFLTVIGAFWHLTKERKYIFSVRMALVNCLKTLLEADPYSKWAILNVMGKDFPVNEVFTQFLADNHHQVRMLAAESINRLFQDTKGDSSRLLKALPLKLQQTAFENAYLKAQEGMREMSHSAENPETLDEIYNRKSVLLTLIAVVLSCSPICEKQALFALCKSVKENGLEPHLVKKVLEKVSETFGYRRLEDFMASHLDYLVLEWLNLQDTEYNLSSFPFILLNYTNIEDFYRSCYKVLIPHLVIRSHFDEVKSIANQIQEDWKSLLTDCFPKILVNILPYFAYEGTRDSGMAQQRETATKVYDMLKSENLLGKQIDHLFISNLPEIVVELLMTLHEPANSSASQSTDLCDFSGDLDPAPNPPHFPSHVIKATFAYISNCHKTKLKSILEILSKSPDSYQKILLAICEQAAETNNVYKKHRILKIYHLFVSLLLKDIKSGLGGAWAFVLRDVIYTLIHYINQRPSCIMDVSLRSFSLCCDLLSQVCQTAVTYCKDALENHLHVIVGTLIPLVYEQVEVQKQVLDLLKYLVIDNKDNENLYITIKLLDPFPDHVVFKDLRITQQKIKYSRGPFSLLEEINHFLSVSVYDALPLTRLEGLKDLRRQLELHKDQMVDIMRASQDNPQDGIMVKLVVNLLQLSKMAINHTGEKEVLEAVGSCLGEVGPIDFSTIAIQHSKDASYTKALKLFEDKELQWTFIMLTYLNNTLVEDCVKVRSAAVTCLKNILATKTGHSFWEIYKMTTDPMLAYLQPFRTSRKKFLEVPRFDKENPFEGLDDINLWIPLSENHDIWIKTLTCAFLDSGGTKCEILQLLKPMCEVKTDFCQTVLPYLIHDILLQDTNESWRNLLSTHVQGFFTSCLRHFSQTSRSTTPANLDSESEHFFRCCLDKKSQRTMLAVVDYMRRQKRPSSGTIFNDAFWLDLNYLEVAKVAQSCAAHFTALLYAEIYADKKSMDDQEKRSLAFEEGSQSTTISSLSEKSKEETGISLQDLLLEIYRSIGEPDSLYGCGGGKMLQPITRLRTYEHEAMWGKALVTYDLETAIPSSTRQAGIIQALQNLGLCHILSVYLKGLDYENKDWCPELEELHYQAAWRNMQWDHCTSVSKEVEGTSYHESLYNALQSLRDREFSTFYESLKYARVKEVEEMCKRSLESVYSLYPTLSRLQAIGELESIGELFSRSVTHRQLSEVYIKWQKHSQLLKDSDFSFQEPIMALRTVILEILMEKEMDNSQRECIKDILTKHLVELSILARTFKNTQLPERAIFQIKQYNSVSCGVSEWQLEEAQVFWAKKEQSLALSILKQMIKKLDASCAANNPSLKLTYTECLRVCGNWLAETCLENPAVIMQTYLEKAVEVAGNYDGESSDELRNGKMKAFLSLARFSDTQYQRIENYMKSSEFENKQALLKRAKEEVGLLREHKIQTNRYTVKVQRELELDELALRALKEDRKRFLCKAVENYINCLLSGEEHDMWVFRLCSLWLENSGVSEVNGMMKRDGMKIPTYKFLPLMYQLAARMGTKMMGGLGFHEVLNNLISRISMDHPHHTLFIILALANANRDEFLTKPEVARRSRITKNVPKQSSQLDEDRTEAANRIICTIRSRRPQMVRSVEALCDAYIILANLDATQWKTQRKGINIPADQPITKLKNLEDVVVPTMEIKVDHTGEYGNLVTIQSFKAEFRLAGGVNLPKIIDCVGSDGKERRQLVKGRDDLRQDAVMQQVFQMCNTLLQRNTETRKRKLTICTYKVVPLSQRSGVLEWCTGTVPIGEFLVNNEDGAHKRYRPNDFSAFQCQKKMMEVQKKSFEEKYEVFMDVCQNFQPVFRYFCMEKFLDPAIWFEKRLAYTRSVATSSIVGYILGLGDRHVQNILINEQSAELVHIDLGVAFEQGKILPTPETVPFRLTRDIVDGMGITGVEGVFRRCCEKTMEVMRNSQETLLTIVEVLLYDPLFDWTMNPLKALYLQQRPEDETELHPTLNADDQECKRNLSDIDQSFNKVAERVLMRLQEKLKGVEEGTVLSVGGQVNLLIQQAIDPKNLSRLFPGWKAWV
Chain of PI3K (p120γ) (human) (P48736 whole entry): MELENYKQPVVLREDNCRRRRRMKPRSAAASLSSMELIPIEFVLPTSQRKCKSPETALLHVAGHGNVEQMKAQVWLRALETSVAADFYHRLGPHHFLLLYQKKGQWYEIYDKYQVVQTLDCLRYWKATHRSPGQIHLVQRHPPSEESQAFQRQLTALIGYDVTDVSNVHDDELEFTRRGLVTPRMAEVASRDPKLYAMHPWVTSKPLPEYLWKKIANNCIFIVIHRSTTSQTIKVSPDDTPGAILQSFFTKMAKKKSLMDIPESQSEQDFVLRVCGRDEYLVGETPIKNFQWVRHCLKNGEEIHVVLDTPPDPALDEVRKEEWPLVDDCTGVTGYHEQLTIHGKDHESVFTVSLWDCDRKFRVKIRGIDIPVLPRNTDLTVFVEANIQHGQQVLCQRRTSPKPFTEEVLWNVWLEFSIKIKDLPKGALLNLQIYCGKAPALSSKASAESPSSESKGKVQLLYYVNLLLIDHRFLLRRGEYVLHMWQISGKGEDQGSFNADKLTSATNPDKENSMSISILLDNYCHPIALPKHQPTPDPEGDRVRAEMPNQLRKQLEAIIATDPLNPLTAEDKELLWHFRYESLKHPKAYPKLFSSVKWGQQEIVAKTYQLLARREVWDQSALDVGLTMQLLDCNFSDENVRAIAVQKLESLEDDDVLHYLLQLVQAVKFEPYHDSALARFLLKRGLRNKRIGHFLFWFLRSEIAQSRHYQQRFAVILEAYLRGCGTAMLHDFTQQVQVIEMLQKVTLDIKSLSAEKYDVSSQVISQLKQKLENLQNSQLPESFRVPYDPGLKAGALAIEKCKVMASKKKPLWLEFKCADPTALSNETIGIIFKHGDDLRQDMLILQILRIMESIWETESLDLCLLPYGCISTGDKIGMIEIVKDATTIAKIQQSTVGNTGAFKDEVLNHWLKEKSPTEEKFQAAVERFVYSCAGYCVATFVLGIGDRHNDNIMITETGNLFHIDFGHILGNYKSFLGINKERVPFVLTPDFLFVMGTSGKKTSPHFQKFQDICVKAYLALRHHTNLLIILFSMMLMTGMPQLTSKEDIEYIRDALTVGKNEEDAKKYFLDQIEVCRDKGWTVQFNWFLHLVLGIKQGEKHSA

Compound	IC50 [1] [nM]	IC50 [2, 3] [nM]	ratio IC50 (ATM) vs PI3Kalpha, selectivity with respect to PI3Kalpha (PI3K p110α/p85α (human))	IC50 ([2]; Homo sapiens, HCT-116, 4 h) [nM]	ratio IC50 (ATM) vs PI3Kgamma, selectivity with respect to PI3Kgamma (PI3K (p120γ) (human))	ratio IC50 (ATM) vs PI3Kdelta, selectivity with respect to PI3Kdelta (PI3K p110δ/p85α (human))
1-(3-Fluoro-5-methylpyridin- 4-yl)-7-methoxy-3-methyl-8- (2-methyl-2H-1,2,3-triazol- 4-yl)-1,3-dihydroimidazo- [4,5-c] quinolin-2-one [compound 103]	< 50	200 to 1000				
CCn1cc(-c2cc3c(cc2OC)ncc2c3n(-c3c(F)cncc3OC)c(=O)n2C)cn1 [Example 13]		< 200				
COCCOc1cnc(-n2c(=O)n(C)c3cnc4cc(OC)c(-c5cnn(C)c5)cc4c32)c(F)c1 [compound 66, 1-[3-Fluoro-5-(2-methoxy-ethoxy)-2-pyridyl]-7-methoxy-3-methyl-8-(1-methylpyrazol-4-yl)imidazo-[4,5-c]quinolin-2-one]	< 1		at least 2000 times	< 200	at least 2000 times	at least 2000 times
COc1cc2ncc3c(c2cc1-c1cnn(C)c1)n(-c1ncc(OCCO)cc1F)c(=O)n3C [compound 67, 1-[3-Fluoro-5-(2-hydroxy-ethoxy)-2-pyridyl]-7-methoxy-3-methyl-8-(1-methylpyrazol-4-yl)imidazo-[4,5-c]quinolin-2-one]	< 1000		at least 2000 times	< 200	at least 2000 times	at least 2000 times
COc1cnc(-n2c(=O)n(C)c3cnc4cc(OC)c(-c5cnn(C)c5)cc4c32)c(F)c1 [compound 105, 1-(3-Fluoro-5-methoxy-pyridin-2-yl)-7-methoxy-3-methyl-8-(1-methyl-1H-pyrazol-4-yl)-1,3-dihydro-imidazo[4,5-c]quinolin-2-one]	< 1			200 to 1000		
COc1cc2ncc3c(c2cc1-c1cnn(C)c1)n(-c1ncc(OC(F)F)cc1F)c(=O)n3C [compound 114, 1-(5-Difluoromethoxy-3-fluoropyridin-2-yl)-7-methoxy-3-methyl-8-(1-methyl-1H-pyrazol-4-yl)-1,3-dihydroimidazo[4,5-c]-quinolin-2-one]	< 1		at least 2000 times	< 200	at least 2000 times	at least 2000 times
COc1cc2ncc3c(c2cc1-c1c[nH]nc1C)n(-c1ncc(F)cc1F)c(=O)n3C [compound 117, 1-(3,5-Difluoropyridin-2-yl)-7-methoxy-3-methyl-8-(3-methyl-1H-pyrazol-4-yl)-1,3-dihydroimidazo[4,5-c]-quinolin-2-one]	< 10		at least 2000 times	200 to 1000	at least 2000 times	at least 2000 times
COc1cc2ncc3c(c2cc1-c1cnn(C)c1)n(-c1cc2[nH]ccc2cn1)c(=O)n3C [compound 120, 7-Methoxy-3-methyl-8-(1-methyl-1H-pyrazol-4-yl)-1-(1H-pyrrolo[3,2-c]pyridin-6-yl)-1,3-dihydroimidazo-[4,5-c]quinolin-2-one]	< 1		at least 2000 times	200 to 1000	at least 2000 times	at least 2000 times
COc1cc2ncc3c(c2cc1-c1cc[nH]n1)n(-c1cn(C)nc1C)c(=O)n3C [compound 121, 1-(1,3-Dimethyl-1H-pyrazol-4-yl)-7-methoxy-3-methyl-8-(1H-pyrazol-3-yl)-1,3-dihydroimidazo[4,5-c]-quinolin-2-one]	< 10			< 200		
CNC(=O)c1cnc(-n2c(=O)n(C)c3cnc4cc(OC)c(-c5cnn(C)c5)cc4c32)c(F)c1 [compound 138, 5-Fluoro-6-[7-methoxy-3-methyl-8-(1-methyl-1H-pyrazol-4-yl)-2-oxo-2,3-dihydroimidazo[4,5-c]-quinolin-1-yl]-N-methyl-nicotinamid]	< 10			200 to 1000		
COc1cc2ncc3c(c2cc1-c1cnn(C)c1)n(-c1cn(C)nc1F)c(=O)n3C [compound 141, 1-(3-Fluoro-1-methyl-1H-pyrazol-4-yl)-7-methoxy-3-methyl-8-(1-methyl-1H-pyrazol-4-yl)-1,3-dihydro-imidazo[4,5-c]quinolin-2-one]	< 10			200 to 1000		
COc1cc2ncc3c(c2cc1-c1cn(C)nc1C)n(-c1c(F)cncc1OC(F)F)c(=O)n3C [compound 147, 1-(3-Difluoromethoxy-5-fluoropyridin-4-yl)-8-(1,3-dimethyl-1H-pyrazol-4-yl)-7-methoxy-3-methyl-1,3-dihydroimidazo[4,5-c]-quinolin-2-one]	< 1			< 200		
[2H]C([2H])([2H])Oc1cnc(-n2c(=O)n(C)c3cnc4cc(OC)c(-c5cnn(C)c5)cc4c32)c(F)c1 [compound 155, 1-[3-Fluoro-5-(trideuterio-methoxy)-2-pyridyl]-7-methoxy-3-methyl-8-(1-methylpyrazol-4-yl) imidazo-[4,5-c]quinolin-2-one]	< 1			< 200		
CCc1cnccc1-n1c(=O)n(C)c2cnc3cc(OC)c(-c4cnn(CC)c4)cc3c21 [compound 157, 8-(1-Ethyl-1H-pyrazol-4-yl)-1-(3-ethylpyridin-4-yl)-7-methoxy-3-methyl-1,3-dihydroimidazo[4,5-c] quinolin-2-one]	< 10			< 200		
COc1cc2ncc3c(c2cc1-c1cnn(C2CNC2)c1)n(-c1c(F)cncc1OC)c(=O)n3C [compound 208, 8-[1-(Azetidin-3-yl)-1H-pyrazol-4-yl]-1-(3-fluoro-5-methoxypyridin-4-yl)-7-methoxy-3-methyl-1H,2H,3H-imidazo[4,5-c]-quinolin-2-one]	< 10					
